Assay results reported in patent US20100173930A1, “Certain Chemical Entities, Compositions and Methods” (priority 2006, published 2010).

These molecules were tested on SKM MYOFIBRIL (assay: SKM myofibril AC1.4 (ATPase, PK/LDH coupled enzyme system)). Settings: screen at pCa=6.5.
Type: biochemical
Experimental: Assay components including the target protein complex, coupling enzymes and substrates, and ATP can then be added to the wells and the absorbance or fluorescence of each well of the plate can be measured with a plate reader.
In some embodiments, the method uses a 384 well plate format and a 25µL reaction volume. […] As will be appreciated by those in the art, the assay components are added in buffers and reagents. The incubation periods can be optimized to give adequate detection signals over the background. The assay can be done in real time giving the kinetics of ATP hydrolysis which increases the signal to noise ratio of the assay.
Just prior to screening, the actin, tropomyosin and troponin complex are mixed together in the desired ratio (e.g., 7:1:1) to achieve maximal calcium regulation of the actin filament. The screen is conducted at a pCa=6.5. This calcium concentration is in the physiological range during muscle contraction.
To measure the generation of ADP during the reaction, a pyruvate kinase/lactate dehydrogenase/NADH coupled enzyme system (PK/LDH) is added to the actin. The myosin is kept separately. The plates are read in real time so that kinetic curves are obtained. These compounds are in DMSO and were already spotted onto the bottoms of 384 well plates at 10 to 40 μg/ml final concentration.
Further: unit not given here.

| SMILES | SKM MYOFIBRIL AC1.4 (median) |
| --- | --- |
| N#Cc1ccn2c(NC3CCCC3)c(-c3ccc(O)cc3)nc2c1 [3-(cyclopentylamino)-2-(4-hydroxyphenyl)-4-hydroimidazo[1,2-a]pyridine-7-carbonitrile] | 17.9621 |
| Cc1ccn2c(NCc3ccccc3C)c(-c3ccccc3O)nc2c1 [2-(7-methyl-3-{[(2-methylphenyl)methyl]amino}-4-hydroimidazo[1,2-a]pyridin-2-yl)phenol] | 0.9648 |
| Oc1ccc(-c2nc3ccccn3c2NCc2ccc(F)cc2)cc1 [4-(3-{[(4-fluorophenyl)methyl]amino}-4-hydroimidazo[1,2-a]pyridin-2-yl)phenol] | 40.3674 |
| Fc1cccc(-c2nc3ccccn3c2NCc2cccc(Cl)c2)c1 [[(3-chlorophenyl)methyl][2-(3-fluorophenyl)(4-hydroimidazo[1,2-a]pyridin-3-yl)]amine] | 43.8606 |
| Fc1ccc(-c2nc3ccccn3c2NC2CCCCC2)cc1 [cyclohexyl[2-(4-fluorophenyl)(4-hydroimidazo[1,2-a]pyridin-3-yl)]amine] | 9.155 |
| Oc1ccc(-c2nc3cccc(Br)n3c2NC2CCCCC2)cc1 [4-[5-bromo-3-(cyclohexylamino)-4-hydroimidazo[1,2-a]pyridin-2-yl]phenol] | 21.5453 |
| Oc1ccccc1-c1nc2cccc(Br)n2c1NCc1cccc(Cl)c1 [2-(5-bromo-3-{[(3-chlorophenyl)methyl]amino}-4-hydroimidazo[1,2-a]pyridin-2-yl)phenol] | 12.5914 |
| COc1cccc(-c2nc3ccccn3c2NCc2cccc(Cl)c2)c1 [[(3-chlorophenyl)methyl][2-(3-methoxyphenyl)(4-hydroimidazo[1,2-a]pyridin-3-yl)]amine] | 35.6445 |
| OCc1ccc2nc(-c3ccccc3O)c(NCc3ccc(F)cc3)n2c1 [2-(3-{[(4-fluorophenyl)methyl]amino}-6-(hydroxymethyl)-4-hydroimidazo[1,2-a]pyridin-2-yl)phenol] | 4.3564 |
| Cc1ccn2c(NCc3cccc(F)c3)c(-c3ccccc3O)nc2c1 [2-(3-{[(3-fluorophenyl)methyl]amino}-7-methyl-4-hydroimidazo[1,2-a]pyridin-2-yl)phenol] | 1.4096 |
| CN(C)C(=O)c1ccc2nc(-c3ccccc3O)c(NCc3cccc(Cl)c3)n2c1 [(3-{[(3-chlorophenyl)methyl]amino}-2-(2-hydroxyphenyl)(4-hydroimidazo[1,2-a]pyridin-6-yl))-N,N-dimethylcarboxamide] | 16.9244 |
| Cc1ccc(-c2nc3cc(C)ccn3c2NC2CCCC2)cc1 [cyclopentyl[7-methyl-2-(4-methylphenyl)(4-hydroimidazo[1,2-a]pyridin-3-yl)]amine] | 4.2349 |
| NC(=O)c1ccc2nc(-c3ccccc3O)c(NCc3ccc(F)cc3)n2c1 [3-{[(4-fluorophenyl)methyl]amino}-2-(2-hydroxyphenyl)-4-hydroimidazo[1,2-a]pyridine-6-carboxamide] | 2.0079 |
| Cc1ccn2c(NCc3cccc(Cl)c3)c(-c3ccccc3O)nc2n1 [2-(3-{[(3-chlorophenyl)methyl]amino}-7-methyl-4-hydroimidazo[1,2-a]pyrimidin-2-yl)phenol] | 7.147 |
| CCc1ccn2c(NCc3ccc(F)cc3)c(-c3ccccc3O)nc2c1 [2-(7-ethyl-3-{[(4-fluorophenyl)methyl]amino}-4-hydroimidazo[1,2-a]pyridin-2-yl)phenol] | 0.9459 |
| Oc1ccccc1-c1nc2cnccn2c1NCc1ccc(F)cc1 [2-(3-{[(4-fluorophenyl)methyl]amino}-4-hydroimidazo[1,2-a]pyrazin-2-yl)phenol] | 4.6013 |
| N#Cc1ccc2nc(-c3ccc(O)cc3)c(NC3CCCC3)n2c1 [3-(cyclopentylamino)-2-(4-hydroxyphenyl)-4-hydroimidazo[1,2-a]pyridine-6-carbonitrile] | 46.9669 |
| c1csc(-c2nc3ccccn3c2NC2CCCCC2)c1 [cyclohexyl(2-(2-thienyl)(4-hydroimidazo[1,2-a]pyridin-3-yl))amine] | 16.7359 |
| Cc1ccn2c(NC3CCCC3)c(-c3ccccc3O)nc2c1 [2-[3-(cyclopentylamino)-7-methyl-4-hydroimidazo[1,2-a]pyridin-2-yl]phenol] | 11.1785 |
| Oc1ccc(-c2nc3ccccn3c2NCc2ccc(F)cc2F)cc1 [4-(3-{[(2,4-difluorophenyl)methyl]amino}-4-hydroimidazo[1,2-a]pyridin-2-yl)phenol] | 37.1035 |
| Oc1ccc(-c2nc3ccccn3c2NCc2ccccc2)cc1 [4-{3-[benzylamino]-4-hydroimidazo[1,2-a]pyridin-2-yl}phenol] | 27.3665 |
| CCC(C)(C)Nc1c(-c2cc3cccc(C)c3nc2O)nc2ccccn12 [3-{3-[(1,1-dimethylpropyl)amino](4-hydroimidazo[1,2-a]pyridin-2-yl)}-8-methylquinolin-2-ol] | 2.3075 |

| SMILES | SKM MYOFIBRIL AC1.4 (median) |
| --- | --- |
| CNC(=O)c1ccc2nc(-c3ccccc3O)c(NCc3cccc(Cl)c3)n2c1 [(3-{[(3-chlorophenyl)methyl]amino}-2-(2-hydroxyphenyl)(4-hydroimidazo[1,2-a]pyridin-6-yl))-N-methylcarboxamide] | 1.2348 |
| COc1cccc2nc(O)c(-c3nc4cc(C)ccn4c3NCc3cccc(Cl)c3)cc12 [3-(3-{[(3-chlorophenyl)methyl]amino}-7-methyl(4-hydroimidazo[1,2-a]pyridin-2-yl))-5-methoxyquinolin-2-ol] | 2.3608 |
| Oc1ccc(-c2nc3ccccn3c2NCc2ccc(Cl)cc2)cc1 [4-(3-{[(4-chlorophenyl)methyl]amino}-4-hydroimidazo[1,2-a]pyridin-2-yl)phenol] | 21.4002 |
| Cc1ccn2c(NCc3cccc(Cl)c3)c(-c3ncccc3O)nc2c1 [2-(3-{[(3-chlorophenyl)methyl]amino}-7-methyl-4-hydroimidazo[1,2-a]pyridin-2-yl)pyridin-3-ol] | 36.9847 |
| Cc1cccc(CNc2c(-c3ccccc3O)nc3cc(C)ccn23)c1 [2-(7-methyl-3-{[(3-methylphenyl)methyl]amino}-4-hydroimidazo[1,2-a]pyridin-2-yl)phenol] | 0.9541 |
| Cc1ccn2c(NCc3cccc(Cl)c3)c(-c3ccc(O)cc3O)nc2c1 [4-(3-{[(3-chlorophenyl)methyl]amino}-7-methyl-4-hydroimidazo[1,2-a]pyridin-2-yl)benzene-1,3-diol] | 22.1516 |
| CNC(=O)c1ccc2nc(-c3ccccc3O)c(NCc3ccc(F)cc3)n2c1 [(3-{[(4-fluorophenyl)methyl]amino}-2-(2-hydroxyphenyl)(4-hydroimidazo[1,2-a]pyridin-6-yl))-N-methylcarboxamide] | 1.8401 |
| COCCNC(=O)c1ccc2nc(-c3ccccc3O)c(NCc3ccc(F)cc3)n2c1 [(3-{[(4-fluorophenyl)methyl]amino}-2-(2-hydroxyphenyl)(4-hydroimidazo[1,2-a]pyridin-6-yl))-N-(2-methoxyethyl)carboxamide] | 4.3059 |
| Oc1ccccc1-c1nc2cnccn2c1NCc1cccs1 [2-{3-[(2-thienylmethyl)amino]-4-hydroimidazo[1,2-a]pyrazin-2-yl}phenol] | 10.6577 |
| Cc1ccn2c(NCc3ccc(F)cc3)c(-c3ccccc3O)nc2c1 [2-(3-{[(4-fluorophenyl)methyl]amino}-7-methyl-4-hydroimidazo[1,2-a]pyridin-2-yl)phenol] | 1.1306 |
| CC(CO)c1ccn2c(NCc3cccc(Cl)c3)c(-c3ccccc3O)nc2c1 (stereo not shown) [2-(3-{[(3-chlorophenyl)methyl]amino}-7-(1-hydroxy-isopropyl)-4-hydroimidazo[1,2-a]pyridin-2-yl)phenol] | 1.2697 |
| CCC(C)(C)Nc1c(-c2cc3ccc(C)c(C)c3nc2O)nc2ccccn12 [3-{3-[(1,1-dimethylpropyl)amino](4-hydroimidazo[1,2-a]pyridin-2-yl)}-7,8-dimethylquinolin-2-ol] | 1.5814 |
| Cc1cn2c(NCc3cccc(Cl)c3)c(-c3ccccc3O)nc2cn1 [2-(3-{[(3-chlorophenyl)methyl]amino}-6-methyl-4-hydroimidazo[1,2-a]pyrazin-2-yl)phenol] | 3.6886 |
| Cc1ccc(CNc2c(-c3ccccc3O)nc3cc(C)ccn23)cc1 [2-(7-methyl-3-{[(4-methylphenyl)methyl]amino}-4-hydroimidazo[1,2-a]pyridin-2-yl)phenol] | 16.3079 |
| N#Cc1ccn2c(NCc3ccc(F)cc3)c(-c3ccc(O)cc3)nc2c1 [3-{[(4-fluorophenyl)methyl]amino}-2-(4-hydroxyphenyl)-4-hydroimidazo[1,2-a]pyridine-7-carbonitrile] | 19.6705 |
| Cc1ccn2c(NC3CCCC3)c(-c3ccc(O)cc3)nc2c1 [4-[3-(cyclopentylamino)-7-methyl-4-hydroimidazo[1,2-a]pyridin-2-yl]phenol] | 4.685 |
| O=C(O)c1ccc2nc(-c3ccccc3O)c(NCc3cccc(Cl)c3)n2c1 [3-{[(3-chlorophenyl)methyl]amino}-2-(2-hydroxyphenyl)-4-hydroimidazo[1,2-a]pyridine-6-carboxylic acid] | 15.043 |
| Cc1cccn2c(NC3CCCC3)c(-c3ccccc3O)nc12 [2-[3-(cyclopentylamino)-8-methyl-4-hydroimidazo[1,2-a]pyridin-2-yl]phenol] | 11.3023 |
| Cc1ccn2c(NCc3ccccc3F)c(-c3ccccc3O)nc2c1 [2-(3-{[(2-fluorophenyl)methyl]amino}-7-methyl-4-hydroimidazo[1,2-a]pyridin-2-yl)phenol] | 1.0036 |
| Cc1ccn2c(NCc3ccccc3)c(-c3ccccc3O)nc2c1 [2-{7-methyl-3-[benzylamino]-4-hydroimidazo[1,2-a]pyridin-2-yl}phenol] | 2.0618 |
| COC(=O)c1ccn2c(NCc3cccc(Cl)c3)c(-c3ccccc3O)nc2c1 [methyl 3-{[(3-chlorophenyl)methyl]amino}-2-(2-hydroxyphenyl)-4-hydroimidazo[1,2-a]pyridine-7-carboxylate] | 5.1088 |
